Laboratory results: US5496947A, “Quinolone carboxylic acid derivatives” (Dong Wha Pharmaceutical Industrial Co., Ltd., priority 1994, dated 1996)
Read-outs that look alike come from different tables or passages of the source.

Columns and labels:
Assay type in all cases: cell-based
[1] = system: Acinetobacter calcoaceticus; experiment: MIC, 2-fold dilution method in micro-well plate, A. calcoaceticus
Method: (§1) The in vitro antibiotic activity of the present compound is measured using 2-fold dilution method with a micro-well plate and the bacteria are inoculated in about 10^5 cfu/ml after an overnight culture in a brain-heart infusion (BHI) broth at 37° C. The novel compounds of the present invention are converted to a hydrochloride salt form and diluted with a sterilized distilled water to make 10 mg/ml aqueous solution. After the mother liquor wherein the compound is diluted to the two-fold concentration has been obtained in the form of an aqueous solution, the respective 0.1 ml of diluted liquor is transferred to a well and is inoculated with 0.1 ml of the culture fluid to make about (10^5 -10^6)/2 cfu/ml.
(§2) After cultivation at 37° C., the minimum inhibitory concentration (MIC) is measured and recorded in Table I-V.
Table I-V show the minimum inhibitory concentrations (MIC). […]

[2] = system: Citrobacter freundii ATCC 8090; experiment: MIC, 2-fold dilution method in micro-well plate, C. freundii; details: ATCC8090, read-out: Minimum Inhibitory Concentration
Method: as §1, §2
(§3) Table I-V show the minimum inhibitory concentrations (MIC).
Citrobacter freundii ATCC 8090

[3] = system: Enterobacter aerogenes ATCC 13048; experiment: MIC, 2-fold dilution method in micro-well plate, E. aerogenes; details: Klebsiella aerogenes
Method: as §1, §2, §3
Enterobacter aerogenes ATCC 13048

[4] = system: Enterobacter cloacae; experiment: MIC, 2-fold dilution method in micro-well plate, E. cloacae; details: read-out: Minimum Inhibitory Concentration
Method: as §1, §2, §3
Enterobacter cloacae ATCC 23355

[5] = system: Escherichia coli ATCC 25922; experiment: MIC, 2-fold dilution method in micro-well plate, E. coli
Method: as §1, §2, §3
Escherichia coli ATCC 25922

[6] = system: Haemophilus influenza ATCC 35056; experiment: MIC, 2-fold dilution method in micro-well plate, H. influenzae; details: H. influenzae ATCC35056, 37° C.; read-out: Minimum Inhibitory Concentration
Method: as §1, §2, §3
Haemophilus influenza ATCC 35056

[7] = system: Klebsiella pneumoniae ATCC 13883; experiment: MIC, 2-fold dilution method in micro-well plate, K. pneumoniae
Method: as §1, §2, §3
Klebsiella pneumoniae ATCC 13883

[8] = system: Proteus vulgaris ATCC 13315; experiment: MIC, 2-fold dilution method in micro-well plate, P. vulgaris
Method: as §1, §2, §3
Proteus vulgaris ATCC 13315

[9] = system: Pseudomonas aeruginosa ATCC 27853; experiment: MIC, 2-fold dilution method in micro-well plate, P. aeruginosa
Method: as §1, §2, §3
Pseudomonas aeruginosa ATCC 27853

[10] = system: Salmonella typhimurium ATCC 14028; experiment: MIC, 2-fold dilution method in micro-well plate, S. typhimurium; details: Salmonella enterica, read-out: Minimum Inhibitory Concentration
Method: as §1, §2, §3
Salmonella typhimurium ATCC 14028

[11] = system: Shigella flexneri ATCC 12022; experiment: MIC, 2-fold dilution method in micro-well plate, S. flexneri; details: S. flexneri ATCC12022, 37° C., read-out: Minimum Inhibitory Concentration
Method: as §1, §2, §3
Shigella flexneri ATCC 12022

[12] = system: Shigella sonnei ATCC 25931; experiment: MIC, 2-fold dilution method in micro-well plate, S. sonnei; details: S. sonnei ATCC25931, 37° C., read-out: Minimum Inhibitory Concentration
Method: as §1, §2, §3
Shigella sonnei ATCC 25931

[13] = system: Serratia marcescens ATCC 8100; experiment: MIC, 2-fold dilution method in micro-well plate, S. marcescens
Method: as §1, §2, §3
Serratia marcescens ATCC 8100

[14] = system: Streptococcus faecalis ATCC 19433; experiment: MIC, 2-fold dilution method in micro-well plate, S. faecalis ATCC 19433; details: Enterococcus faecalis; S. faecalis ATCC19433, 37° C.; read-out: Minimum Inhibitory Concentration
Method: as §1, §2, §3
Streptococcus faecalis ATCC 19433

[15] = system: Streptococcus faecalis ATCC 29212; experiment: MIC, 2-fold dilution method in micro-well plate, S. faecalis ATCC 29212; details: Enterococcus faecalis; S. faecalis ATCC29212, 37° C.; read-out: Minimum Inhibitory Concentration
Method: as §1, §2, §3
Streptococcus faecalis ATCC 29212

[16] = system: Streptococcus pneumoniae ATCC 6303; experiment: MIC, 2-fold dilution method in micro-well plate, S. pneumoniae; details: S. pneuinoniae ATCC6303, 37° C., read-out: Minimum Inhibitory Concentration
Method: as §1, §2, §3
Streptococcus pneumoniae ATCC 6303

[17] = system: Streptococcus pyrogens ATCC 19615; experiment: MIC, 2-fold dilution method in micro-well plate, S. pyrogens; details: S. pyrogenes ATCC19615, 37° C., read-out: Minimum Inhibitory Concentration
Method: as §1, §2, §3
Streptococcus pyrogens ATCC 19615

[18] = A. calcoaceticus ATCC8090 (as in tables), 37° C., read-out: Minimum Inhibitory Concentration
[19] = ATCC13048, read-out: Minimum Inhibitory Concentration
[20] = ATCC25922, read-out: Minimum Inhibitory Concentration
[21] = ATCC13883, read-out: Minimum Inhibitory Concentration
[22] = ATCC13315, read-out: Minimum Inhibitory Concentration
[23] = P. aerugirnosa ATCC27853, 37° C., read-out: Minimum Inhibitory Concentration
[24] = S. marcescens ATCC8100, 37° C., read-out: Minimum Inhibitory Concentration
[25] = ATCC8090, read-out: Minimum Inhibitory Concentration
[26] = E. aerogenes ATCC13048, 37° C., read-out: Minimum Inhibitory Concentration
[27] = E. coli ATCC25922, 37° C., read-out: Minimum Inhibitory Concentration
[28] = K. pneumoniae ATCC13883, 37° C., read-out: Minimum Inhibitory Concentration
[29] = P. vulgaris ATCC13315, 37° C., read-out: Minimum Inhibitory Concentration
[30] = ATCC8100, read-out: Minimum Inhibitory Concentration

| SMILES | MIC [1, 18] [µg/mL] | MIC [2] [µg/mL] | MIC [3, 19] [µg/mL] | MIC [4] [µg/mL] | MIC [5, 20] [µg/mL] | MIC [6] [µg/mL] | MIC [7, 21] [µg/mL] | MIC [8, 22] [µg/mL] | MIC [9, 23] [µg/mL] | MIC [10] [µg/mL] | MIC [11] [µg/mL] | MIC [12] [µg/mL] | MIC [13, 24] [µg/mL] | MIC [14] [µg/mL] | MIC [15] [µg/mL] | MIC [16] [µg/mL] | MIC [17] [µg/mL] | MIC [5, 27] [µg/mL] | MIC [8, 29] [µg/mL] | MIC [13, 30] [µg/mL] | other results |
| --- | --- | --- | --- | --- | --- | --- | --- | --- | --- | --- | --- | --- | --- | --- | --- | --- | --- | --- | --- | --- | --- |
| CC1CN(c2c(F)cc3c(=O)c(C(=O)O)cn(-c4ccc(F)cn4)c3c2F)CCN1.Cl (stereo not shown) [Example 25, 1-(5-fluoro-2-pyridyl)-6,8-difluoro-7-(3-methyl-1-piperazinyl)-1,4-dihydro-4-oxoquinoline-3-carboxylic acid hydrochloride] | 1.25 | 0.625 | 0.625 | 0.625 | 0.625 | 0.625 | 0.625 | 0.625 | 0.313 | 0.625 | 0.156 | 0.156 | 1.25 | 5 | 5 | 5 | 10 |  |  |  |  |
| Cl.NC1CCN(c2cc3c(cc2F)c(=O)c(C(=O)O)cn3-c2ccncc2F)C1 (stereo not shown) [Example 5, 1-(3-fluoro-4-pyridyl)-6-fluoro-7-(3-amino-1-pyrrolidinyl)-1,4-dihydro-4-oxoquinoline-3-carboxylic acid hydrochloride] |  | 0.313 |  | 0.313 |  | 0.313 |  |  | 0.313 | 0.313 | 0.625 | 0.078 |  | 2.5 | 2.5 | 2.5 | 5 | 0.156 | 0.078 | 0.313 | MIC [1, 25]: 0.313 µg/mL; MIC [3, 26]: 0.156 µg/mL; MIC [7, 28]: 0.156 µg/mL |
| CC1CN(c2nc3c(cc2F)c(=O)c(C(=O)O)cn3-c2ccc(F)cn2)CC(C)N1.Cl (stereo not shown) [Example 15, 1-(5-fluoro-2-pyridyl)-6-fluoro-7-(3,5-dimethyl-1-piperazinyl)-1,4-dihydro-4-oxo-1,8-naphthyridine-3-carboxylic acid hydrochloride] | 0.625 | 0.313 |  |  |  | 2.5 |  |  | 1.25 |  | 0.313 | 0.078 | 1.25 | 5 | 5 | 10 | 10 | 0.625 | 1.25 |  | MIC [3, 26]: 1.25 µg/mL; MIC ([4]; E. cloacae ATCC23355 (as in tables), 37° C.): 0.625 µg/mL; MIC [7, 28]: 0.625 µg/mL; MIC ([10]; S. typhisurium ATCC14028, 37° C.): 1.25 µg/mL |
| Cl.O=C(O)c1cn(-c2ccc(F)cn2)c2nc(N3CCNCC3)c(F)cc2c1=O [Example 12, 1-(5-fluoro-2-pyridyl)-6-fluoro-7-(1-piperazinyl)-1,4-dihydro-4-oxo-1,8-naphthyridine-3-carboxylic acid hydrochloride] |  | 1.25 | 0.625 | 0.625 | 0.313 | 1.25 | 0.625 | 0.625 | 1.25 | 1.25 | 0.625 | 0.313 |  | 5 | 5 | 5 | 5 |  |  | 1.25 | MIC [1, 25]: 0.625 µg/mL |
| Cl.N[C@H]1CCN(c2nc3c(cc2F)c(=O)c(C(=O)O)cn3-c2ccncc2F)C1 [Example 11, 1-(3-fluoro-4-pyridyl)-6-fluoro-7-[(3S)-3-amino-1-pyrrolidinyl]-1,4-dihydro-4-oxo-1,8-naphthyridine-3-carboxylic acid hydrochloride] | 1.25 | 0.156 | 0.156 | 0.156 |  | 0.156 | 0.156 |  |  | 0.156 | 0.156 | 0.01 |  | 0.625 | 0.625 | 1.25 | 2.5 | 0.078 | 0.313 | 0.156 | MIC ([9]; ATCC27853, read-out: Minimum Inhibitory Concentration): 0.156 µg/mL |
